In data set [1] the test system is PSMA+ PC3 PIP and PSMA− PC3 flu xenografts. The settings on record: for PIP (PSMA+) tumor uptake on SPECT-CT: SCID mice, 0.5-1 mCi i.v., imaged at 45 min p.i.; for uptake in normal organs (gallbladder, liver, kidneys) on SPECT-CT: mouse, in vivo, iv; for tumor contrast on late SPECT-CT images: several hours after injection (3.5-4 h uptake period).
A further data set has as its target T1, PSMA (Homo sapiens, UniProt Q04609).
T1 construct: LNCaP cell extracts were prepared by sonication in NAALADase buffer; endogenous in cells; host or cells: LNCaP cell extract (sonicated in 50 mM Tris pH 7.4, 0.5% Triton X-100)
In words: NAALADase assay (NAAG hydrolysis, LNCaP cell extracts). In kind it is biochemical. The settings on record: for Ki: LNCaP cell extracts, Cheng-Prusoff conversion, read-out: Ki (PSMA inhibitory activity). How it is done:
The relative binding affinities of L1-L7 and ReL1-ReL7, were determined using the N-acetylated-α-linked acidic dipeptidase (NAALADase) assay as previously described.
NAAG hydrolysis was performed essentially as described previously (Robinson, M. B.; et al. J Biol Chem 1987, 262, 14498-14506; Lupold, S. E.; et al. Cancer Res 2002, 62, 4029-4033.). In short, LNCaP cell extracts were prepared by sonication in NAALADase buffer [50 mM Tris (pH 7.4) and 0.5% Triton X-100]. Cell lysates were incubated with or without inhibitor at 37° C. for 10 minutes. Following the incubation the radiolabeled substrate N-acetyl-L-aspartyl-L-(3,4-^3H)glutamate (NEN Life Science Products, Boston, Mass.) was added to a final concentration of 30 nM at 37° C. for 10-15 min. The reaction was stopped by the addition of an equal volume of ice-cold 100 mM sodium phosphate and 2 mM EDTA. Products were partitioned by AG 1-X8 formate resin (Bio-Rad Laboratories) anion exchange chromatography, eluted with 1 M sodium formate, and quantified by liquid scintillation counting. […] Assays were performed in triplicate with the entire inhibition study being repeated at least once to confirm affinity and mode of inhibition. Data were collected during linear phase of hydrolysis (i.e., <20% cleavage of total substrate). Enzyme inhibitory constants (Ki values) were generated using the Cheng-Prusoff conversion (Cheng, Y.; Prusoff, W. H. Biochem Pharmcol 1973, 22, 3099-3108).

Data set [2] is described as follows: Metabolite studies (HPLC of tissue extracts, plasma, urine). It is filed as in vivo, mice. Here is the method:
Mice were sacrificed at either 30 min or 1 h postinjection by cervical dislocation and their blood and selected organs were removed. Blood samples were withdrawn using heparinized syringes and tissues were placed on ice prior to manual homogenization in PBS, pH 7.4. Plasma and tissue homogenates in PBS were centrifuged for 2 min at 13,000×g at ambient temperature. A portion of the supernatant was diluted to 4 mL in 8 M urea containing 50 mg citric acid. Urine samples were added directly to 4 mL of the acidified urea solution. Samples then underwent separation by HPLC as previously described (Hilton, J.; et al. Nucl Med Biol 2000, 27, 627-630). Briefly, the 4 mL sample in 8 M acidified urea was passed through a capture column (Strata-X, 19×4.4 mm, Phenomenex, Torrance, Calif.) at 2 mL/min followed by 1% acetonitrile in water to wash plasma proteins from the column. The effluent from the capture column, containing only highly polar components, flowed through a dual BGO detector (Bioscan, Washington, D.C.) operating in the […]. The solvent was then switched to 30% acetonitrile:50 mM phosphate buffer at pH 2.4 (2 mL/min) for elution of the radiolabeled components previously bound to the capture column onto the analytical column (Synergi Polar-RP 250×4.6 mm 10 micron particle size Phenomenex).

In data set [3] the test system is PSMA+ PC3 PIP and PSMA− PC3 flu xenografts. Particulars: mouse, in vivo.

T1 sequence (Q04609 whole entry): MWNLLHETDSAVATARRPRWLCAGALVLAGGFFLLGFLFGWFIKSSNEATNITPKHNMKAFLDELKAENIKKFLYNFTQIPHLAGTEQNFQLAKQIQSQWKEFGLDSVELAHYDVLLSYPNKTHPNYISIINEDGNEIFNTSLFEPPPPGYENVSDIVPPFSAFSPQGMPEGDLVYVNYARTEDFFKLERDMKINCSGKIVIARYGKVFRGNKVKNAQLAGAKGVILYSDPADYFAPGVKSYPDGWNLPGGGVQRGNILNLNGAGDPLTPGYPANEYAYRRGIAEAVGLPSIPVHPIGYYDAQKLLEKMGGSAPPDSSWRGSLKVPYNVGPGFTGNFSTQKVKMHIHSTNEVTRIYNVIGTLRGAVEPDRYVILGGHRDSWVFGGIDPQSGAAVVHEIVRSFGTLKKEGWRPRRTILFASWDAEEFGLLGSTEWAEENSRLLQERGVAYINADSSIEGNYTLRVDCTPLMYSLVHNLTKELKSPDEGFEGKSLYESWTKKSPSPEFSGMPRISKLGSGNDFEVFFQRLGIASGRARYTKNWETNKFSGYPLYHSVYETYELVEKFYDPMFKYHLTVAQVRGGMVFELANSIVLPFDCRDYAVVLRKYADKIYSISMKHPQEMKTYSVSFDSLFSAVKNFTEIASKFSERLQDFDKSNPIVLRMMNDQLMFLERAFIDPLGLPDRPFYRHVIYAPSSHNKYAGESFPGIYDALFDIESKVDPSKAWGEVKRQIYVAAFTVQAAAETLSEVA

Regarding `O=C(O)CC[C@H](NC(=O)N[C@@H](CCCCNC(=O)CCCCCCCN(Cc1ccccn1)Cc1ccccn1)C(=O)O)C(=O)O.[99Tc+].[C-]#[O+].[C-]#[O+].[C-]#[O+]` [[^99mTc]L5], the “PIP (PSMA+) tumor uptake on SPECT-CT” value in data set [1] is “qualitatively similar to [^99mTc]L4”. Regarding “Tricarbonyl (2-[3-(5-{7-[5-(bis-pyridin-2-ylmethyl-amino)-1-carboxy-pentylcarbamoyl]-heptanoylamino}-1-carboxy-pentyl)-ureido]-pentanedioic acid) rhenium bromide [ReL1]”, the Ki at PSMA was 10.8 nM. As for `O=C(O)CC[C@H](NC(=O)N[C@@H](CCCCN(Cc1ccccn1)Cc1ccccn1)C(=O)O)C(=O)O.[99Tc+].[C-]#[O+].[C-]#[O+].[C-]#[O+]` [[^99mTc]L6], in data set [1], the “PIP (PSMA+) tumor uptake on SPECT-CT” value was “no PIP tumor-specific uptake”. For the molecule `O=C(O)CC[C@H](NC(=O)N[C@@H](CCCCNC(=O)CCCCCCC(=O)N[C@@H](CCCCN(Cc1ccc2ccccc2n1)Cc1ccc2ccccc2n1)C(=O)O)C(=O)O)C(=O)O.[99Tc+].[C-]#[O+].[C-]#[O+].[C-]#[O+]` [[^99mTc]L2], in data set [1], the “PIP (PSMA+) tumor uptake on SPECT-CT” value is on record as “weak PIP tumor uptake”; the “uptake in normal organs (gallbladder, liver, kidneys) on SPECT-CT” value (from here on “uptake in normal organs”) is “strong gallbladder uptake and kidney uptake”.

`O=C(O)CCC(NC(=O)NC(CCCCN(Cc1ccccn1)Cc1ccccn1)C(=O)O)C(=O)O.[Br-].[C-]#[O+].[C-]#[O+].[C-]#[O+].[Re+]` (stereo not drawn) [ReL6, Tricarbonyl(2-{3-[5-(bis-pyridin-2-ylmethyl-amino)-1-carboxy-pentyl]-ureido}-pentanedioic acid)rhenium bromide]: at PSMA, the Ki worked out at 200 nM.

For `O=C(O)CCC(NC(=O)NC(CCCCNC(=O)CCCCCCCN(Cc1ccccn1)Cc1ccccn1)C(=O)O)C(=O)O.[Br-].[C-]#[O+].[C-]#[O+].[C-]#[O+].[Re+]` (stereo not drawn) [ReL5, Tricarbonyl(2-(3-{5-[8-(bis-pyridin-2-ylmethyl-amino)-octanoylamino]-1-carboxy-pentyl}-ureido)-pentanedioic acid)rhenium bromide], on PSMA, the Ki stood at 0.91 nM.

`O=C(O)CCC(NC(=O)NC(CCCCNC(=O)CCCCCCC(=O)NCCCCC(C(=O)O)N(Cc1ccccn1)Cc1ccccn1)C(=O)O)C(=O)O` (centres unmarked) [Compound L3, 2-[3-(5-{7-[5-(Bis-pyridin-2-ylmethyl-amino)-5-carboxy-pentylcarbamoyl]-heptanoylamino}-1-carboxy-pentyl)-ureido]-pentanedioic acid]: the Ki at PSMA amounted to 1.08 nM. On the same count and under the same terms, then `O=C(O)CCC(NC(=O)NC(CCCCNC(=O)CCCCCCCN(Cc1ccccn1)Cc1ccccn1)C(=O)O)C(=O)O` (centres unmarked) [Compound L5, 2-(3-{5-[8-(Bis-pyridin-2-ylmethyl-amino)-octanoylamino]-1-carboxy-pentyl}-ureido)-pentanedioic acid], with 1.86 nM.

With `O=C(O)CCC(NC(=O)NC(CCCCNC(=O)CCCCCCC(=O)NCCCCCCN(CC(=O)O)Cc1ccccn1)C(=O)O)C(=O)O` (centres unmarked) [Compound L4, 2-[3-(1-Carboxy-5-{7-[6-(carboxymethyl-pyridin-2-ylmethyl-amino)-hexylcarbamoyl]-heptanoylamino}-pentyl)-ureido]-pentanedioic acid], the Ki at PSMA was 2.54 nM. Regarding `O=C(O)CC[C@H](NC(=O)N[C@@H](CCCCNC(=O)CCCCCCC(=O)N[C@@H](CCCCN(Cc1ccccn1)Cc1ccccn1)C(=O)O)C(=O)O)C(=O)O.[99Tc+].[C-]#[O+].[C-]#[O+].[C-]#[O+]` [[^99mTc]L1], in data set [2] (all other tissue extracts, plasma and urine at 30 and 60 min postinjection), the “chromatographed radioactivity as the parent compound” value was 100%. Besides, the “extracted radioactivity as a polar metabolite” value in data set [2] (mouse kidney extracted 60 min after injection) was determined as 2%. In data set [1], the “PIP (PSMA+) tumor uptake on SPECT-CT” value was “strongly positive PIP tumor”; the “uptake in normal organs” value is “gallbladder uptake and clear visualization of the kidneys”; the “tumor contrast on late SPECT-CT images” value is “higher contrast of tumor with respect to background”. For the molecule `O=C(O)CCC(NC(=O)NC(CCCCNC(=O)CCCCCCC(=O)NCCCCCCN(Cc1ccccn1)Cc1ccccn1)C(=O)O)C(=O)O` (centres unmarked) [Compound L7, 2-[3-(5-{7-[6-(Bis-pyridin-2-ylmethyl-amino)-hexylcarbamoyl]-heptanoylamino}-1-carboxy-pentyl)-ureido]-pentanedioic acid], at PSMA, the inhibition constant (Ki) stood at 0.45 nM. Take `O=C(O)CCC(NC(=O)NC(CCCCNC(=O)CCCCCCC(=O)NCCCCC(C(=O)O)N(Cc1ccccn1)Cc1ccccn1)C(=O)O)C(=O)O.[Br-].[C-]#[O+].[C-]#[O+].[C-]#[O+].[Re+]` (stereo not drawn) [ReL3, Tricarbonyl(2-[3-(5-{7-[5-(bis-pyridin-2-ylmethyl-amino)-5-carboxy-pentylcarbamoyl]-heptanoylamino}-1-carboxy-pentyl)-ureido]-pentanedioic acid)rehenium bromide]: the Ki on PSMA came to 10.3 nM.

For the molecule `O=C(O)CCC(NC(=O)NC(CCCCNC(=O)CCCCCCC(=O)NCCCCCCN(CC(=O)[O][Re])Cc1ccccn1)C(=O)O)C(=O)O.[C-]#[O+].[C-]#[O+].[C-]#[O+]` (stereo not drawn) [ReL4, Tricarbonyl(2-[3-(1-carboxy-5-{7-[6-(carboxymethyl-pyridin-2-ylmethyl-amino)-hexylcarbamoyl]-heptanoylamino}-pentyl)-ureido]-pentanedioic acid) rhenium], the Ki on PSMA is 0.17 nM. The “fold higher PSMA inhibitory potency than ReL7” value at PSMA (relative to ReL7) is reported as “about 12 fold”. Take `O=C(O)CCC(NC(=O)NC(CCCCN(Cc1ccccn1)Cc1ccccn1)C(=O)O)C(=O)O` (centres unmarked) [Compound L6, 2-{3-[5-(Bis-pyridin-2-ylmethyl-amino)-1-carboxy-pentyl]-ureido}-pentanedioic acid]: the Ki at PSMA came to 7.53 nM.

Turning to `O=C(O)CCC(NC(=O)NC(CCCCNC(=O)CCCCCCC(=O)NCCCCC(C(=O)O)N(Cc1ccccn1)Cc1ccccn1)C(=O)O)C(=O)O.[99Tc+].[C-]#[O+].[C-]#[O+].[C-]#[O+]` (centres unmarked) [[^99mTc]L3], the “PIP:flu uptake ratio, held steady” value in data set [3] is “around 5”. In data set [1], the “PIP (PSMA+) tumor uptake on SPECT-CT” value is on record as “strong PIP tumor uptake”; the “uptake in normal organs” value is “gallbladder uptake and clear visualization of the kidneys”; the “tumor contrast on late SPECT-CT images” value was “higher contrast of tumor with respect to background”. On to `O=C(O)CCC(NC(=O)NC(CCCCNC(=O)CCCCCCC(=O)NC(CCCCNC(=O)CN1CCN(CC(=O)O)CCN(CC(=O)O)CCN(CC(=O)O)CC1)C(=O)O)C(=O)O)C(=O)O` (centres unmarked) [DOTA-L1, 2-{3-[1-Carboxy-5-(7-{1-carboxy-5-[2-(4,7,10-tris-carboxymethyl-1,4,7,10tetraaza-cyclododec-1-yl)-acetylamino]-pentylcarbamoyl}-heptanoylamino)-pentyl]-ureido}-pentanedioic acid], for which, on PSMA, the IC50 is 0.8 nM.

With `O=C(O)CCC(NC(=O)NC(CCCCNC(=O)CCCCCCC(=O)NCCCCCCN(Cc1ccccn1)Cc1ccccn1)C(=O)O)C(=O)O.[Br-].[C-]#[O+].[C-]#[O+].[C-]#[O+].[Re+]` (stereo not drawn) [ReL7, Tricarbonyl(2-[3-(5-{7-[6-(Bis-pyridin-2-ylmethyl-amino)-hexylcarbamoyl]-heptanoylamino}-1-carboxy-pentyl)-ureido]-pentanedioic acid)rhenium bromide], the Ki on PSMA stood at 2.06 nM.

Usually Ki stands for the dissociation constant of the complex between target and ligand, obtained from inhibition or displacement. A word on the IC50: it is the midpoint of a concentration-inhibition curve. A high value points to weaker potency in that assay.

These data come from patent publication US10039845B2, “Labeled inhibitors of prostate specific membrane antigen (PSMA) biological evaluation, and use of imaging agents” (THE JOHNS HOPKINS UNIVERSITY, priority 2007, dated 2018).
